Measurements from patent US20210215714A1, “COMPLEMENT ALTERNATIVE PATHWAY-ASSOCIATED NEPHROPATHY BIOMARKERS” (Achillion Pharmaceuticals, Inc., priority 2018, published 2021).
Entries after “also recorded” stand apart in the source; their conditions may differ.

Tested on: sC5b-9
Experiment: Phase 2a study: urinary sC5b-9 (MicroVue sC5b-9 Enzyme Immunoassay);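 note: urine from C3 glomerulopathy or IC-MPGN patients, sandwich ELISA capturing sC5b-9 via C9-ring monoclonal with HRP detection read at 450 nm, values raw or normalized to creatinine or albumin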
Conditions: for Urine sC5b-9 / sC5b-9/ALB / sC5b-9/Cr: 200 mg TID; for sC5b-9/ALB GEOMEAN / sC5b-9/ALB MEAN / sC5b-9/Cr MEAN / Urine sC5b-9 GEOMEAN / Urine sC5b-9 MEAN / sC5b-9/Cr GEOMEAN: patients A-F
From the text: 10 patients with either C3 Glomerulopathy (C3G) or Immune-Complex Membranoproliferative Glomerulonephritis (IC-MPGN) are to be enrolled across two dose groups. […] Inclusion criteria include a clinical diagnosis of C3G (C3 glomerulonephritis [C3GN] or dense deposit disease [DDD], the 2 types of C3G) or idiopathic immune-complex membranoproliferative glomerulonephritis (IC-MPGN) by renal biopsy for at least 3 months prior to dosing, with the pathologic diagnosis verified by review of the renal biopsy by the study central pathologist. Patients must have low C3 levels (<50% of the lower limit of normal) and normal or near-normal C4 levels (>90% of the lower limit of normal).
To measure urinary sC5b-9 production, patient urine samples were tested utilizing the MicroVue sC5b-9 Enzyme Immunoassay for the quantitation of sC5b-9 in urine. […] The samples were tested utilizing the MicroVue sC5b-9 Enzyme Immunoassay for the quantitation of sC5b-9 urine, which is a three-step procedure utilizing a micro-assay plate coated with a mouse monoclonal antibody that binds specifically to the C9 ring of sC5b-9, HRP-conjugated antibodies to antigens of sC5b-9, and a chromogenic substrate. In step 1, standards, controls, and test specimens are added to micro-assay wells pre-coated with an anti-sC5b-9 specific monoclonal antibody. sC5b-9 present in the Standards, Controls, or specimens will bind to the immobilized sC5b-9 monoclonal antibody. After incubation, a wash cycle removes unbound material. […] In step 2, horseradish peroxidase (HRP)-conjugated antibodies to antigens of sC5b-9 are added to each test well. The enzyme conjugated antibodies bind to sC5b-9 that was captured by the monoclonal anti-sC5b-9 bound on the surface of the micro-assay wells. After incubation, a wash cycle removes unbound, excess conjugate. In step 3, a chromogenic enzyme substrate is added to each micro-assay well. The bound HRP-conjugate reacts with the substrate, forming a blue color. After incubation the enzyme reaction is stopped chemically, the color changes to yellow, and the color intensity is measured spectrophotometrically at 450 nm. The color intensity of the reaction mixture is proportional to the concentration of sC5b-9 present in the test specimens, standards, and controls. […] Measurements of urinary biomarkers are typically normalized to urine creatinine or albumin levels to account for variation in biomarker levels due to changes in urinary filtration rate.

In the case of `CC(=O)c1nn(CC(=O)N2C[C@H](F)C[C@H]2C(=O)Nc2cccc(Br)n2)c2ccc(-c3cnc(C)nc3)cc12` [Compound 1, (2S,4R)-1-(2-(3-acetyl-5-(2-methylpyrimidin-5-yl)-1H-indazol-1-yl)acetyl)-N-(6-bromopyridin-2-yl)-4-fluoropyrrolidine-2-carboxamide], the “Urine sC5b-9” value (Patient D, Day 21 Taper) is reported as 44.0 ng/mL, the sC5b-9/ALB (Patient D, Day 21 Taper) is reported as 18 ng/mg and the sC5b-9/Cr (Patient D, Day 21 Taper) is reported as 10.5 µg/mmol. For the same compound, the “Urine sC5b-9” value (Patient D, Follow-Up Day 24) was 39.9 ng/mL, the sC5b-9/ALB (Patient D, Follow-Up Day 24) was 21 ng/mg and the sC5b-9/Cr (Patient D, Follow-Up Day 24) was 5.9 µg/mmol. For the same compound, the “Urine sC5b-9” value (Patient D, Follow-Up Day 28) was 57.8 ng/mL, the sC5b-9/ALB (Patient D, Follow-Up Day 28) was 21 ng/mg and the sC5b-9/Cr (Patient D, Follow-Up Day 28) was 12.0 µg/mmol. The “Urine sC5b-9” value (Patient D, Follow-Up Day 49) was 40.3 ng/mL, the sC5b-9/ALB (Patient D, Follow-Up Day 49) was 16 ng/mg and the sC5b-9/Cr (Patient D, Follow-Up Day 49) was 10.3 µg/mmol. The “Urine sC5b-9” value (Patient D, Screen) was 148.7 ng/mL, the sC5b-9/ALB (Patient D, Screen) was 34 ng/mg and the sC5b-9/Cr (Patient D, Screen) was 19.6 µg/mmol. For the same compound, the sC5b-9/ALB (Patient E, Day 1/0 Hour) was 127 ng/mg, the sC5b-9/Cr (Patient E, Day 1/0 Hour) was 54.0 µg/mmol and the “Urine sC5b-9” value (Patient E, Day 1 predose) was 959 ng/mL. The “Urine sC5b-9” value (Patient E, Day 4) was 538 ng/mL, the sC5b-9/ALB (Patient E, Day 4) was 61 ng/mg and the “Urine sC5b-9” value (Patient E, Day 7) was 484 ng/mL. The sC5b-9/ALB (Patient E, Day 7/0 Hour) was 59 ng/mg, the sC5b-9/Cr (Patient E, Day 7/0 Hour) was 31.5 µg/mmol and the “Urine sC5b-9” value (Patient E, Day 10) was 212 ng/mL. For the same compound, the sC5b-9/ALB (Patient E, Day 10) was 26 ng/mg, the sC5b-9/Cr (Patient E, Day 10) was 16.1 µg/mmol and the “Urine sC5b-9” value (Patient E, Day 14) was 112 ng/mL. For the same compound, the sC5b-9/ALB (Patient E, Day 14) was 19 ng/mg, the sC5b-9/Cr (Patient E, Day 14) was 5.0 µg/mmol and the “Urine sC5b-9” value (Patient E, Day 15 Taper) was 70 ng/mL. The sC5b-9/ALB (Patient E, Day 15 Taper) was 23 ng/mg, the sC5b-9/Cr (Patient E, Day 15 Taper) was 7.5 µg/mmol and the “Urine sC5b-9” value (Patient E, Day 16 Taper) was 42 ng/mL. For the same compound, the sC5b-9/ALB (Patient E, Day 16 Taper) was 15 ng/mg, the sC5b-9/Cr (Patient E, Day 16 Taper) was 4.2 µg/mmol and the “Urine sC5b-9” value (Patient E, Day 17 Taper) was 74 ng/mL. For the same compound, the sC5b-9/ALB (Patient E, Day 17 Taper) was 20 ng/mg, the sC5b-9/Cr (Patient E, Day 17 Taper) was 9.4 µg/mmol and the “Urine sC5b-9” value (Patient E, Day 21 Taper) was 97 ng/mL. The sC5b-9/ALB (Patient E, Day 21 Taper) was 50 ng/mg, the sC5b-9/Cr (Patient E, Day 21 Taper) was 12.7 µg/mmol and the “Urine sC5b-9” value (Patient E, Follow-Up Day 24) was 188 ng/mL. The sC5b-9/ALB (Patient E, Follow-Up Day 24) was 50 ng/mg, the sC5b-9/Cr (Patient E, Follow-Up Day 24) was 15.1 µg/mmol and the “Urine sC5b-9” value (Patient E, Follow-Up Day 28) was 141 ng/mL. The sC5b-9/ALB (Patient E, Follow-Up Day 28) was 28 ng/mg, the sC5b-9/Cr (Patient E, Follow-Up Day 28) was 8.5 µg/mmol and the “Urine sC5b-9” value (Patient E, Follow-Up Day 49) was 217 ng/mL. The sC5b-9/ALB (Patient E, Follow-Up Day 49) was 42 ng/mg, the sC5b-9/ALB (Patient F, Day 1/0 Hour) was 120 ng/mg and the sC5b-9/Cr (Patient F, Day 1/0 Hour) was 35.2 µg/mmol. The “Urine sC5b-9” value (Patient F, Day 1 predose) was 348 ng/mL, the “Urine sC5b-9” value (Patient F, Day 4) was 43 ng/mL and the sC5b-9/ALB (Patient F, Day 4) was 58 ng/mg. The sC5b-9/Cr (Patient F, Day 4) was 8.8 µg/mmol, the “Urine sC5b-9” value (Patient F, Day 7) was 54 ng/mL and the sC5b-9/ALB (Patient F, Day 7/0 Hour) was 147 ng/mg. The sC5b-9/Cr (Patient F, Day 7/0 Hour) was 13.9 µg/mmol, the “Urine sC5b-9” value (Patient F, Day 10) was 34 ng/mL and the “Urine sC5b-9” value (Patient F, Day 14) was 62 ng/mL. For the same compound, the sC5b-9/ALB (Patient F, Day 14) was 37 ng/mg, the sC5b-9/Cr (Patient F, Day 14) was 6.7 µg/mmol and the “Urine sC5b-9” value (Patient F, Day 15 Taper) was 35 ng/mL. For the same compound, the sC5b-9/ALB (Patient F, Day 15 Taper) was 8 ng/mg, the sC5b-9/Cr (Patient F, Day 15 Taper) was 5.8 µg/mmol and the “Urine sC5b-9” value (Patient F, Day 16 Taper) was 25 ng/mL. The sC5b-9/ALB (Patient F, Day 16 Taper) was 30 ng/mg, the sC5b-9/Cr (Patient F, Day 16 Taper) was 7.0 µg/mmol and the “Urine sC5b-9” value (Patient F, Day 17 Taper) was 55 ng/mL. The sC5b-9/ALB (Patient F, Day 17 Taper) was 12 ng/mg, the sC5b-9/Cr (Patient F, Day 17 Taper) was 5.9 µg/mmol and the “Urine sC5b-9” value (Patient F, Day 21 Taper) was 104 ng/mL. For the same compound, the sC5b-9/ALB (Patient F, Day 21 Taper) was 24 ng/mg, the sC5b-9/Cr (Patient F, Day 21 Taper) was 8.2 µg/mmol and the “Urine sC5b-9” value (Patient F, Follow-Up Day 24) was 51 ng/mL. For the same compound, the sC5b-9/ALB (Patient F, Follow-Up Day 24) was 34 ng/mg, the sC5b-9/Cr (Patient F, Follow-Up Day 24) was 9.5 µg/mmol and the “Urine sC5b-9” value (Patient F, Follow-Up Day 28) was 65 ng/mL. For the same compound, the sC5b-9/ALB (Patient F, Follow-Up Day 28) was 57 ng/mg, the sC5b-9/Cr (Patient F, Follow-Up Day 28) was 14.4 µg/mmol and the “Urine sC5b-9” value (Patient F, Follow-Up Day 49) was 180 ng/mL. The sC5b-9/ALB (Patient F, Follow-Up Day 49) was 59 ng/mg, the sC5b-9/Cr (Patient F, Follow-Up Day 49) was 33.2 µg/mmol and the “sC5b-9/ALB GEOMEAN” value (Day 1/0 Hour) was 125.0 ng/mg. For the same compound, the “sC5b-9/ALB MEAN” value (Day 1/0 Hour) was 335.0 ng/mg, the “sC5b-9/Cr MEAN” value (Day 1/0 Hour) was 163.6 µg/mmol and the “Urine sC5b-9 GEOMEAN” value (Day 1 predose) was 210 ng/mL. The “Urine sC5b-9 MEAN” value (Day 1 predose) was 1120 ng/mL, the “Urine sC5b-9 GEOMEAN” value (Day 4) was 94 ng/mL and the “Urine sC5b-9 MEAN” value (Day 4) was 472 ng/mL. For the same compound, the “sC5b-9/ALB GEOMEAN” value (Day 4) was 80.6 ng/mg, the “sC5b-9/ALB MEAN” value (Day 4) was 165.3 ng/mg and the “sC5b-9/Cr GEOMEAN” value (Day 4) was 14.0 µg/mmol. For the same compound, the “sC5b-9/Cr MEAN” value (Day 4) was 37.0 µg/mmol, the “Urine sC5b-9 GEOMEAN” value (Day 7) was 91 ng/mL and the “Urine sC5b-9 MEAN” value (Day 7) was 483 ng/mL. For the same compound, the “sC5b-9/ALB GEOMEAN” value (Day 7/0 Hour) was 102.8 ng/mg, the “sC5b-9/ALB MEAN” value (Day 7/0 Hour) was 171.5 ng/mg and the “sC5b-9/Cr GEOMEAN” value (Day 7/0 Hour) was 17.1 µg/mmol. For the same compound, the “sC5b-9/Cr MEAN” value (Day 7/0 Hour) was 38.0 µg/mmol, the “Urine sC5b-9 GEOMEAN” value (Day 10) was 56 ng/mL and the “Urine sC5b-9 MEAN” value (Day 10) was 231 ng/mL. The “Urine sC5b-9 GEOMEAN” value (Day 15 Taper) was 66 ng/mL, the “Urine sC5b-9 MEAN” value (Day 15 Taper) was 588 ng/mL and the “sC5b-9/ALB GEOMEAN” value (Day 15 Taper) was 48.2 ng/mg. The “sC5b-9/ALB MEAN” value (Day 15 Taper) was 192.6 ng/mg, the “sC5b-9/Cr GEOMEAN” value (Day 15 Taper) was 11.9 µg/mmol and the “sC5b-9/Cr MEAN” value (Day 15 Taper) was 55.8 µg/mmol. The “Urine sC5b-9 GEOMEAN” value (Day 17 Taper) was 71 ng/mL, the “Urine sC5b-9 MEAN” value (Day 17 Taper) was 488 ng/mL and the “sC5b-9/ALB GEOMEAN” value (Day 17 Taper) was 51.5 ng/mg. The “sC5b-9/ALB MEAN” value (Day 17 Taper) was 191.3 ng/mg, the “sC5b-9/Cr GEOMEAN” value (Day 17 Taper) was 11.6 µg/mmol and the “sC5b-9/Cr MEAN” value (Day 17 Taper) was 45.3 µg/mmol. For the same compound, the “Urine sC5b-9 GEOMEAN” value (Day 21 Taper) was 99 ng/mL, the “Urine sC5b-9 MEAN” value (Day 21 Taper) was 468 ng/mL and the “sC5b-9/ALB GEOMEAN” value (Day 21 Taper) was 76.3 ng/mg. For the same compound, the “sC5b-9/ALB MEAN” value (Day 21 Taper) was 190.1 ng/mg, the “sC5b-9/Cr GEOMEAN” value (Day 21 Taper) was 15.2 µg/mmol and the “sC5b-9/Cr MEAN” value (Day 21 Taper) was 58.3 µg/mmol. The “Urine sC5b-9 GEOMEAN” value (Follow-Up Day 24) was 108 ng/mL, the “Urine sC5b-9 MEAN” value (Follow-Up Day 24) was 724 ng/mL and the “sC5b-9/ALB GEOMEAN” value (Follow-Up Day 24) was 92.3 ng/mg. The “sC5b-9/ALB MEAN” value (Follow-Up Day 24) was 289.8 ng/mg, the “sC5b-9/Cr GEOMEAN” value (Follow-Up Day 24) was 17.8 µg/mmol and the “sC5b-9/Cr MEAN” value (Follow-Up Day 24) was 115.8 µg/mmol. The “Urine sC5b-9 GEOMEAN” value (Follow-Up Day 28) was 113 ng/mL, the “Urine sC5b-9 MEAN” value (Follow-Up Day 28) was 457 ng/mL and the “sC5b-9/ALB GEOMEAN” value (Follow-Up Day 28) was 80.5 ng/mg. For the same compound, the “sC5b-9/ALB MEAN” value (Follow-Up Day 28) was 200.5 ng/mg, the “sC5b-9/Cr MEAN” value (Follow-Up Day 28) was 64.2 µg/mmol and the “Urine sC5b-9 GEOMEAN” value (Follow-Up Day 49) was 162 ng/mL. For the same compound, the “Urine sC5b-9 MEAN” value (Follow-Up Day 49) was 2440 ng/mL, the “sC5b-9/ALB GEOMEAN” value (Follow-Up Day 49) was 123.3 ng/mg and the “sC5b-9/ALB MEAN” value (Follow-Up Day 49) was 1111.7 ng/mg. The “sC5b-9/Cr GEOMEAN” value (Follow-Up Day 49) was 23.5 µg/mmol, the “sC5b-9/Cr MEAN” value (Follow-Up Day 49) was 159.5 µg/mmol and the “Urinary sC5b-9 levels” value (two-week treatment) was “reduced significantly; also recorded: reduced in all patients”. For the same compound, the “Urinary sC5b-9 levels normalized to urinary creatinine or albumin” value (two-week treatment) was “reduced significantly”.
